{"source": "patent US9351484B2", "about": "“N-alkyl lactam ethers, and compositions and uses thereof” (priority 2010, dated 2016)", "key": {"[1]": {"assay": "Aqueous behavior of ether/water blends, pH 1 to 13, chilled", "assay_type": "physicochemical", "conditions": "equal mass ratio with water, pH adjusted from 1 to 13, chilled to −15° C.", "protocol": "The blends were pH adjusted from 1 to 13 and then chilled to −15° C."}, "[2]": {"assay": "Freezing point depression of glycerol (or other polyol)-water blends with added ether", "assay_type": "physicochemical", "protocol": "Different binary blends of glycerol and water are prepared, and then bis-N-ethyl pyrrolidone ether is added in 1% increments from 0% to 50% of the ether. The freezing point depression of these compositions is measured using a suitable differential thermometer (e.g., a thermocouple).\nAs a specific subclass to Example 5, a eutectic blend of glycerol-water is prepared, having about 65% glycerol (by weight) and a freezing point depression of about −46° C. Bis-N-ethyl pyrrolidone ether is added in 1% increments from 0% to 50% added ether. The freezing point depression of these compositions is measured using a suitable differential thermometer (e.g., a thermocouple).\n[…], replacing glycerol with ethylene glycol, propylene glycol, or pentaerythritol."}, "[3]": {"assay": "Gas hydrate inhibitor and anti-agglomerant test", "conditions": "0.5% and 1.0% (w/w NaCl brine solution), 123 bar, 2.8° C.", "protocol": "Bis-N-ethyl pyrrolidone ether was assessed as a gas hydrate inhibitor and as an anti-agglomerant. A three-part fluid blend was prepared having equal mass amounts of Troika crude oil (black oil), synthetic condensate, and a sodium chloride brine solution into which the ether was dissolved. Ether addition levels were studied two times at 0.5% (w/w NaCl brine solution), and one time at 1.0% (w/w NaCl brine solution). The abovementioned fluid blend blanketed with Green Canyon gas (Table 6) at a pressure of 123 bar and maintained at 2.8° C. for the tests."}, "[4]": {"assay": "Freezing points of bis-N-ethyl pyrrolidone ether/water blends by differential scanning calorimetry", "assay_type": "physicochemical", "protocol": "The freezing points of bis-N-ethyl pyrrolidone ether/water blends were measured using differential scanning calorimetry. All measurements were conducted under nitrogen purge from 25° C. to −80° C. at a cooling rate of 5° C./min using a Q2000 calorimeter by TA Instruments.\nFreezing depressions were measured for bis-N-ethyl pyrrolidone ether/water blends (Table 3)."}, "[5]": {"conditions": "equal volume ratio", "excerpt": "The blends were visually observed to determine miscibility of the ether with the various solvents."}, "[6]": {"conditions": "cited from earlier work"}}, "note": "Entries after “also recorded” stand apart in the source; their conditions may differ. Where two headings read alike, the source gives them in different places."}
{"smiles": "O=C1CCCN1CCOCCN1CCCC1=O", "note": "[bis-N-ethyl pyrrolidone ether]", "values": [{"measurement": "phase behavior of blend with water", "setting": "[1]", "value": "single phase"}, {"measurement": "freezing point depression", "setting": "[2]; ether added 0% to 50% to eutectic glycerol-water blend (about 65% glycerol)", "value": "lower than −46 °C"}, {"measurement": "freezing point depression compared to glycerol-water binary blends", "setting": "[2]; ether added 0% to 50% to glycerol-water blends", "value": "further depress the freezing point depression"}, {"measurement": "freezing point depression compared to solutions without the ether", "setting": "[2]; glycerol replaced with ethylene glycol, propylene glycol, or pentaerythritol", "value": "lowers the freezing point depression"}, {"measurement": "formation of gas hydrates and agglomerants", "setting": "[3]", "value": "considerably limited gas hydrate formation; also recorded: very small"}, {"measurement": "freezing point", "setting": "[4]; 1% in water (by mass)", "value": "−9.3", "unit": "°C"}, {"measurement": "freezing point", "setting": "[4]; 5% in water (by mass)", "value": "−7.9", "unit": "°C"}, {"measurement": "freezing point", "setting": "[4]; 10% in water (by mass)", "value": "−13.5", "unit": "°C"}, {"measurement": "freezing point", "setting": "[4]; 20% in water (by mass)", "value": "−13.3", "unit": "°C"}, {"measurement": "freezing point", "setting": "[4]; 30% in water (by mass)", "value": "−18.2", "unit": "°C"}, {"measurement": "freezing point", "setting": "[4]; 40% in water (by mass)", "value": "−28.6", "unit": "°C"}, {"measurement": "freezing point", "setting": "[4]; 50% in water (by mass)", "value": "−43.2", "unit": "°C"}, {"measurement": "freezing point", "setting": "[4]; 60% in water (by mass)", "value": "<−80", "unit": "°C"}, {"measurement": "freezing point", "setting": "[4]; 66% in water (by mass)", "value": "<−80", "unit": "°C"}, {"measurement": "freezing point", "setting": "[4]; 75% in water (by mass)", "value": "<−80", "unit": "°C"}, {"measurement": "freezing point", "setting": "[4]; 100% bis-N-ethyl pyrrolidone ether", "value": "<−80", "unit": "°C"}, {"measurement": "miscibility observation", "setting": "[5]; 2-propanol", "value": "miscible"}, {"measurement": "miscibility observation", "setting": "[5]; acetone", "value": "miscible"}, {"measurement": "miscibility observation", "setting": "[5]; cyclohexane", "value": "immiscible"}, {"measurement": "miscibility observation", "setting": "[5]; cyclohexane, listed as bis-N-ethyl pyrrolidone", "value": "insoluble"}, {"measurement": "miscibility observation", "setting": "[5]; ethyl acetate", "value": "miscible"}, {"measurement": "miscibility observation", "setting": "[5]; hexane", "value": "immiscible"}, {"measurement": "miscibility observation", "setting": "[5]; hexane, listed as bis-N-ethyl pyrrolidone", "value": "insoluble"}, {"measurement": "miscibility observation", "setting": "[5]; methanol", "value": "miscible"}, {"measurement": "miscibility observation", "setting": "[5]; methyl ethyl ketone", "value": "miscible"}, {"measurement": "miscibility observation", "setting": "[5]; toluene", "value": "miscible"}, {"measurement": "miscibility observation", "setting": "[5]; water", "value": "miscible"}, {"measurement": "pH in a 50% aqueous solution", "setting": "50% aqueous solution", "value": 9.5}, {"measurement": "viscosity", "setting": "Cannon Fenske viscometer, #300 tube", "value": 96.4, "unit": "cP^†"}, {"measurement": "color (APHA)", "setting": "neat", "value": ">500"}, {"measurement": "freezing point", "setting": "neat", "value": "<−80", "unit": "°C"}, {"measurement": "refractive index", "setting": "neat", "value": "around 1.51"}, {"measurement": "specific gravity", "setting": "neat", "value": 1.148}, {"measurement": "thermal decomposition temperature", "setting": "neat", "value": 275, "unit": "°C"}, {"measurement": "physical state", "setting": "neat, ambient conditions", "value": "liquid (ambient conditions)"}, {"measurement": "refractive index", "setting": "neat, listed as bis-N-ethyl pyrrolidone", "value": 1.5063}, {"measurement": "surface tension (static)", "setting": "plate", "value": 50.2}, {"measurement": "surface tension (static)", "setting": "ring", "value": 51.1}]}
{"smiles": "OCCO", "note": "[ethylene glycol]", "values": [{"measurement": "freezing point", "setting": "[6]; 11% in water (by mass)", "value": "−3", "unit": "°C"}, {"measurement": "freezing point", "setting": "[6]; 22% in water (by mass)", "value": "−8", "unit": "°C"}, {"measurement": "freezing point", "setting": "[6]; 32% in water (by mass)", "value": "−16", "unit": "°C"}, {"measurement": "freezing point", "setting": "[6]; 43% in water (by mass)", "value": "−25", "unit": "°C"}, {"measurement": "freezing point", "setting": "[6]; 53% in water (by mass)", "value": "−37", "unit": "°C"}, {"measurement": "freezing point", "setting": "[6]; 63% in water (by mass)", "value": "−55", "unit": "°C"}, {"measurement": "freezing point", "setting": "[6]; ethylene glycol and water in equal mass ratio", "value": "−32", "unit": "°C"}]}
